Eleven compounds from ChEMBL document CHEMBL1125282, “Evaluation of desferrithiocin and its synthetic analogues as orally effective iron chelators” (1991) can be followed below.

Holding throughout (type): functional
Experiment [1] relates to Rattus norvegicus. Kind of experiment: Total iron output induced by the compound (oral administration) and bile duct cannulated rat and the drug-promoted iron excretion was monitored in the bile at 12 hr.
In experiment [2] the test system is Rattus norvegicus. Description: Total iron output induced by the compound (oral administration) and bile duct cannulated rat and the drug-promoted iron excretion was monitored in the bile at 15 hr. Also: test concentration or dose not given here.
Experiment [3] concerns Rattus norvegicus. Kind of experiment: Total iron output induced by the compound (oral administration) and bile duct cannulated rat and the drug-promoted iron excretion was monitored in the bile at 18 h.
The test system of experiment [4] is Rattus norvegicus. Kind of experiment: Total iron output induced by the compound (oral administration) and bile duct cannulated rat and the drug-promoted iron excretion was monitored in the bile at 6 hr. Also: test concentration or dose not given here.
Experiment [5] deals with Rattus norvegicus. Kind of experiment: Total iron output induced by the compound (oral administration) and bile duct cannulated rat and the drug-promoted iron excretion was monitored in the bile at 9 h.
The subject of experiment [6] is Rattus norvegicus. Description: Total iron output induced by the compound (oral administration) and bile duct cannulated rat and the drug-promoted iron excretion was monitored in the urine at 24 hr.
In experiment [7] the test system is Rattus norvegicus. Description: Total iron output induced by the compound (oral administration) and bile duct cannulated rat and the drug-promoted iron excretion was monitored in the bile at 21 hr. Also: test concentration or dose not given here.
Experiment [8] has as its system Rattus norvegicus. Description: Total iron output induced by the compound (oral administration) and bile duct cannulated rat and the drug-promoted iron excretion was monitored in the bile at 24 hr.
Experiment [9] has as its system Rattus norvegicus. Description: Total iron output induced by the compound (oral administration) and bile duct cannulated rat and the drug-promoted iron excretion was monitored in the bile at 3h. Also: test concentration or dose not given here.
Experiment [10] concerns Rattus norvegicus. Description: Total iron output induced by the compound (sc administration) and bile duct cannulated rat and the drug-promoted iron excretion was monitored in the urine at 24 hr.
In experiment [11] the test system is Rattus norvegicus. Description: Total iron output induced by the compound (sc administration) and bile duct cannulated rat and the drug-promoted iron excretion was monitored in the bile at 12 hr.
Experiment [12] deals with Rattus norvegicus. Description: Total iron output induced by the compound (sc administration) and bile duct cannulated rat and the drug-promoted iron excretion was monitored in the bile at 15 hr.
The subject of experiment [13] is Rattus norvegicus. Kind of experiment: Total iron output induced by the compound (sc administration) and bile duct cannulated rat and the drug-promoted iron excretion was monitored in the bile at 18 h.
Experiment [14] deals with Rattus norvegicus. Description: Total iron output induced by the compound (sc administration) and bile duct cannulated rat and the drug-promoted iron excretion was monitored in the bile at 21 hr.
Experiment [15] deals with Rattus norvegicus. Kind of experiment: Total iron output induced by the compound (sc administration) and bile duct cannulated rat and the drug-promoted iron excretion was monitored in the bile at 24 hr.
In experiment [16] the test system is Rattus norvegicus. Description: Total iron output induced by the compound (sc administration) and bile duct cannulated rat and the drug-promoted iron excretion was monitored in the bile at 3h.
Experiment [17] has as its system Rattus norvegicus. Description: Total iron output induced by the compound (sc administration) and bile duct cannulated rat and the drug-promoted iron excretion was monitored in the bile at 6 hr.
The test system of experiment [18] is Rattus norvegicus. Kind of experiment: Total iron output induced by the compound (sc administration) and bile duct cannulated rat and the drug-promoted iron excretion was monitored in the bile at 9 h.

With `O=C([O-])[C@@H]1CSC(c2ncccc2O)=N1.[Na+]`, the Total iron output in the experiment on Rattus norvegicus [1] turned out to be 48.5 µg/kg; in the experiment with Rattus norvegicus [2], 56.3 µg/kg; in the experiment on Rattus norvegicus [3], 65.3 µg/kg; with Rattus norvegicus [4], 28.1 µg/kg; in the experiment with Rattus norvegicus [5], 40.7 µg/kg; with Rattus norvegicus [6], 21 µg/kg. Also, the Total iron output turned out to be 74.8 µg/kg in the experiment with Rattus norvegicus [7], 81.9 µg/kg with Rattus norvegicus [8] and 9 µg/kg in the experiment on Rattus norvegicus [9].

Consider `O=C([O-])[C@@H]1CSC(c2ccccc2O)=N1.[Na+]`, for which the Total iron output was 184.9 µg/kg with Rattus norvegicus [1]; 210.6 µg/kg in the experiment with Rattus norvegicus [2]; 226.8 µg/kg with Rattus norvegicus [3]; 91.6 µg/kg with Rattus norvegicus [4]; 143.8 µg/kg in the experiment on Rattus norvegicus [5]; 18.67 µg/kg in the experiment with Rattus norvegicus [6]. Besides, the Total iron output is 238.1 µg/kg in the experiment with Rattus norvegicus [7], 246.9 µg/kg in the experiment with Rattus norvegicus [8] and 28.6 µg/kg with Rattus norvegicus [9].

Regarding `O=C(O)[C@@H]1CSC(c2ccccn2)=N1`, the Total iron output in the experiment on Rattus norvegicus [1] is 39.5 µg/kg; in the experiment on Rattus norvegicus [2] it was 47.1 µg/kg; in the experiment on Rattus norvegicus [3], 56.2 µg/kg; in the experiment with Rattus norvegicus [4], 22.5 µg/kg; in the experiment on Rattus norvegicus [5], 31.2 µg/kg; with Rattus norvegicus [6], 14.2 µg/kg. Further, the Total iron output in the experiment with Rattus norvegicus [7] worked out at 64.1 µg/kg; in the experiment on Rattus norvegicus [8], 71.9 µg/kg; in the experiment on Rattus norvegicus [9], 11.8 µg/kg.

In the case of `O=C(O)[C@@H]1CSC(c2ncccc2O)=N1`, the Total iron output in the experiment with Rattus norvegicus [1] was 182.3 µg/kg; with Rattus norvegicus [2] it was 194 µg/kg; with Rattus norvegicus [3], 201.3 µg/kg; in the experiment on Rattus norvegicus [4], 98.2 µg/kg; in the experiment on Rattus norvegicus [5], 154 µg/kg; with Rattus norvegicus [6] it was 14.1 µg/kg. The values for the Total iron output in the experiment on Rattus norvegicus [7], in the experiment with Rattus norvegicus [8] and with Rattus norvegicus [9] were 209.6 µg/kg, 217.2 µg/kg and 28.7 µg/kg, respectively.

For the compound `C[C@]1(C(=O)NCCCCNCCCNC(=O)[C@@]2(C)CSC(c3ncccc3O)=N2)CSC(c2ncccc2O)=N1`, the Total iron output stood at 56.6 µg/kg in the experiment with Rattus norvegicus [1]; 65.8 µg/kg in the experiment with Rattus norvegicus [2]; 74 µg/kg in the experiment with Rattus norvegicus [3]; 30 µg/kg in the experiment on Rattus norvegicus [4]; 45.2 µg/kg in the experiment with Rattus norvegicus [5]; 18 µg/kg in the experiment on Rattus norvegicus [6]. Moreover, the Total iron output in the experiment on Rattus norvegicus [7] was 82.2 µg/kg; in the experiment with Rattus norvegicus [8] it was 92.8 µg/kg; with Rattus norvegicus [9] it was 13.2 µg/kg.

On to `COC(=O)[C@H]1N=C(c2ncccc2O)O[C@@H]1C`, for which the Total iron output was 37.3 µg/kg with Rattus norvegicus [1]; 43.7 µg/kg with Rattus norvegicus [2]; 49.4 µg/kg in the experiment with Rattus norvegicus [3]; 21.3 µg/kg in the experiment on Rattus norvegicus [4]; 20.2 µg/kg in the experiment on Rattus norvegicus [5]; 7.6 µg/kg in the experiment with Rattus norvegicus [6]. The Total iron output in the experiment on Rattus norvegicus [7] came to 55.1 µg/kg; in the experiment with Rattus norvegicus [8] it was 60.8 µg/kg; in the experiment on Rattus norvegicus [9] it was 11.3 µg/kg.

Turning to `COC(=O)[C@@H]1CSC(c2ncccc2O)=N1`, the Total iron output in the experiment with Rattus norvegicus [1] came to 68.7 µg/kg; with Rattus norvegicus [2], 74.7 µg/kg; with Rattus norvegicus [3], 81 µg/kg; in the experiment on Rattus norvegicus [4] it was 53.3 µg/kg; in the experiment on Rattus norvegicus [5], 59.9 µg/kg; with Rattus norvegicus [6], 18.7 µg/kg. In addition, the Total iron output in the experiment on Rattus norvegicus [7] was found to be 85.3 µg/kg; in the experiment on Rattus norvegicus [8] it was 93.3 µg/kg; in the experiment with Rattus norvegicus [9], 42.9 µg/kg.

As for `O=C([O-])[C@@H]1CSC(c2ccccn2)=N1.[Na+]`, the Total iron output with Rattus norvegicus [1] is 34.9 µg/kg; with Rattus norvegicus [2] it was 42.2 µg/kg; in the experiment on Rattus norvegicus [3], 49.6 µg/kg; in the experiment with Rattus norvegicus [4], 16.6 µg/kg; in the experiment with Rattus norvegicus [5], 26.2 µg/kg; with Rattus norvegicus [6] it was 11.9 µg/kg. The results for the Total iron output in the experiment with Rattus norvegicus [7], with Rattus norvegicus [8] and with Rattus norvegicus [9] were 56.8 µg/kg, 62.1 µg/kg and 7.1 µg/kg, respectively.

For `CC(=O)N(O)CCCCCNC(=O)CCC(=O)N(O)CCCCCNC(=O)CCC(=O)N(O)CCCCCN` [DEFEROXAMINE], the Total iron output in the experiment on Rattus norvegicus [10] is 49.2 µg/kg; in the experiment with Rattus norvegicus [1] it was 97.1 µg/kg; in the experiment on Rattus norvegicus [2], 110.8 µg/kg; in the experiment on Rattus norvegicus [3], 119.8 µg/kg; with Rattus norvegicus [4], 43.9 µg/kg; in the experiment on Rattus norvegicus [5], 76.8 µg/kg. The Total iron output with Rattus norvegicus [6] was found to be 16.5 µg/kg; with Rattus norvegicus [11], 173.9 µg/kg; in the experiment on Rattus norvegicus [12] it was 196.2 µg/kg; in the experiment on Rattus norvegicus [13], 210.7 µg/kg; with Rattus norvegicus [14], 219.8 µg/kg; in the experiment on Rattus norvegicus [15], 228.4 µg/kg. Moreover, the Total iron output in the experiment with Rattus norvegicus [16] turned out to be 43.6 µg/kg; with Rattus norvegicus [17] it was 105.9 µg/kg; in the experiment on Rattus norvegicus [18] it was 152.8 µg/kg; in the experiment on Rattus norvegicus [7], 128.7 µg/kg; with Rattus norvegicus [8], 135 µg/kg; with Rattus norvegicus [9], 14.7 µg/kg.

Regarding `C[C@]1(C(=O)[O-])CSC(c2ncccc2O)=N1.[Na+]` [DESFERRITHIOCIN SODIUM], the Total iron output was found to be 125.8 µg/kg in the experiment on Rattus norvegicus [1]; 135.9 µg/kg in the experiment with Rattus norvegicus [2]; 146.8 µg/kg in the experiment with Rattus norvegicus [3]; 70 µg/kg in the experiment on Rattus norvegicus [4]; 111.7 µg/kg with Rattus norvegicus [5]; 38.43 µg/kg in the experiment on Rattus norvegicus [6]. In addition, the Total iron output in the experiment on Rattus norvegicus [7] is 153.2 µg/kg; in the experiment with Rattus norvegicus [8], 159.3 µg/kg; with Rattus norvegicus [9], 21.8 µg/kg.

Consider `C[C@]1(C(=O)O)CSC(c2ncccc2O)=N1` [DESFERRITHIOCIN], for which the Total iron output in the experiment with Rattus norvegicus [1] was determined as 234.8 µg/kg; in the experiment with Rattus norvegicus [2] it was 245.6 µg/kg; with Rattus norvegicus [3], 253.7 µg/kg; in the experiment on Rattus norvegicus [4], 143 µg/kg; with Rattus norvegicus [5], 205.3 µg/kg; in the experiment on Rattus norvegicus [6], 27 µg/kg. The Total iron output in the experiment on Rattus norvegicus [7] is 263.1 µg/kg; in the experiment on Rattus norvegicus [8], 268.5 µg/kg; with Rattus norvegicus [9] it was 64.5 µg/kg.
